Assay results published in patent US8383619B2, “Pharmaceutical compounds” (Astex Therapeutics Limited, priority 2008, dated 2013).

Columns and labels:
Test in all cases: Anti-proliferative assay (Oncodesign)
Format in all cases: cell-based
A-431 = settings: Homo sapiens; A-431 (SKIN); read-out: IC50 (Concentration of test compound)
Procedure: (§1) The anti-proliferative activities of the parent compounds of the pro-drugs of the invention may be determined by measuring the ability of the compounds to inhibition of cell growth in a number of cell lines such as the human colon cancer cell line HCT116. Inhibition of cell growth is measured using the Alamar Blue assay (Nociari, M. M, Shalev, A., Benias, P., Russo, C. Journal of Immunological Methods 1998, 213, 157-167). The method is based on the ability of viable cells to reduce resazurin to its fluorescent product resorufin. For each proliferation assay cells are plated onto 96 well plates and allowed to recover for 16 hours prior to the addition of inhibitor compounds for a further 72 hours. At the end of the incubation period 10% (v/v) Alamar Blue is added and incubated for a further 6 hours prior to determination of fluorescent product at […]. In the case of the non-proliferating cell assay cells are maintained at confluence for 96 hour prior to the addition of inhibitor compounds for a further 72 hours. The number of viable cells is determined by Alamar Blue assay as before. Cell lines may be obtained from the ECACC (European Collection of cell Cultures).
(§2) The parent compound of the pro-drugs of Examples 1 to 25 i.e. (2,4-dihydroxy-5-isopropyl-phenyl)-[5-(4-methyl-piperazin-1-ylmethyl)-1,3-dihydro-isoindol-2-yl]-methanone, in the form of its L-lactate salt, was tested in anti-proliferative assays against one hundred cell lines by Oncodesign (Dijon, France). The IC50 values against each cell line are set out in the table below and the figures in the table refer to nanomolar concentrations. The compounds were tested up to a concentration of 10,000 nanomolar.

A-498 = settings: Homo sapiens, A498; A-498 (KIDNEY); read-out: IC50 (Concentration of test compound)
Procedure: as §1, §2

CAMA-1 = settings: Homo sapiens; CAMA-1 (BREAST); read-out: IC50 (Concentration of test compound)
Procedure: as §1, §2

CMEL-5 = CMEL-5 (SKIN); read-out: IC50 (Concentration of test compound)
Procedure: as §1, §2

Caki-1 = settings: Homo sapiens; Caki-1 (KIDNEY); read-out: IC50 (Concentration of test compound)
Procedure: as §1, §2

DU 145 = settings: Homo sapiens; DU 145 (PROSTATE); read-out: IC50 (Concentration of test compound)
Procedure: as §1, §2

Evsa-T = settings: Homo sapiens; Evsa-T (BREAST); read-out: IC50 (Concentration of test compound)
Procedure: as §1, §2

HCC1954 = settings: Homo sapiens; HCC1954 (BREAST); read-out: IC50 (Concentration of test compound)
Procedure: as §1, §2

HCT-15 = settings: Homo sapiens; HCT-15 (COLON); read-out: IC50 (Concentration of test compound)
Procedure: as §1, §2

HL-60/R10 = settings: Homo sapiens; HL-60/R10 (BLOOD); read-out: IC50 (Concentration of test compound)
Procedure: as §1, §2

HL-60 = settings: Homo sapiens; HL-60 (BLOOD); read-out: IC50 (Concentration of test compound)
Procedure: as §1, §2

J82 = settings: Homo sapiens; J82 (URINARY BLADDER); read-out: IC50 (Concentration of test compound)
Procedure: as §1, §2

KCL-22 = settings: Homo sapiens; KCL-22 (BLOOD); read-out: IC50 (Concentration of test compound)
Procedure: as §1, §2

KG-1 = settings: Homo sapiens; KG-1 (BLOOD); read-out: IC50 (Concentration of test compound)
Procedure: as §1, §2

LB1047-RCC = LB1047-RCC (KIDNEY); read-out: IC50 (Concentration of test compound)
Procedure: as §1, §2

LB11-SCLC/OC1 = LB11-SCLC/OC1 (LUNG); read-out: IC50 (Concentration of test compound)
Procedure: as §1, §2

LB12-SCLC/OC2 = LB12-SCLC/OC2 (LUNG); read-out: IC50 (Concentration of test compound)
Procedure: as §1, §2

LS 174T = settings: Homo sapiens, LS174T; LS 174T (COLON); read-out: IC50 (Concentration of test compound)
Procedure: as §1, §2

MDA-MB-435 = settings: Homo sapiens; MDA-MB-435 (BREAST); read-out: IC50 (Concentration of test compound)
Procedure: as §1, §2

NCI-H460 = settings: Homo sapiens; NCI-H460 (LUNG); read-out: IC50 (Concentration of test compound)
Procedure: as §1, §2

NIH: OVCAR-3/CPT20 = settings: Homo sapiens; NIH: OVCAR-3/CPT20 (OVARY); read-out: IC50 (Concentration of test compound)
Procedure: as §1, §2

PANC-1 = settings: Homo sapiens; PANC-1 (PANCREAS); read-out: IC50 (Concentration of test compound)
Procedure: as §1, §2

SK-HEP-1 = settings: Homo sapiens, SK-HEP1; SK-HEP-1 (LIVER); read-out: IC50 (Concentration of test compound)
Procedure: as §1, §2

SUP-B15 = settings: Homo sapiens; SUP-B15 (BLOOD); read-out: IC50 (Concentration of test compound)
Procedure: as §1, §2

ZR-75-1 = settings: Homo sapiens; ZR-75-1 (BREAST); read-out: IC50 (Concentration of test compound)
Procedure: as §1, §2

IC50 (A-431): 3.8 µM
IC50 (HCC1954): 0.028 µM
IC50 (HCT-15): > 10 µM
IC50 (HL-60/R10): 0.847 µM
IC50 (HL-60): 0.389 µM
IC50 (MDA-MB-435): 0.122 µM
IC50 (NCI-H460): 0.118 µM
IC50 (NIH: OVCAR-3/CPT20): > 10 µM
IC50 (PANC-1): 0.327 µM
IC50 (SK-HEP-1): > 10 µM
Compound: CC(C)c1cc(C(=O)N2Cc3ccc(CN4CCN(C)CC4)cc3C2)c(O)cc1O [(2,4-dihydroxy-5-isopropyl-phenyl)-[5-(4-methyl-piperazin-1-ylmethyl)-1,3-dihydro-isoindol-2-yl]-methanone]
IC50 (A-498): 0.267 µM
IC50 (CAMA-1): 0.022 µM
IC50 (CMEL-5): 0.13 µM
IC50 (Caki-1): > 10 µM
IC50 (DU 145): 0.085 µM
IC50 (Evsa-T): 0.168 µM
IC50 (J82): 0.02 µM
IC50 (KCL-22): 0.024 µM
IC50 (KG-1): > 10 µM
IC50 (LB1047-RCC): 0.058 µM
IC50 (LB11-SCLC/OC1): 0.017 µM
IC50 (LB12-SCLC/OC2): 0.052 µM
IC50 (LS 174T): 0.159 µM
IC50 (SUP-B15): 0.037 µM
IC50 (ZR-75-1): 0.131 µM
